In paper PMC10247784, “Physiological activation of human and mouse bitter taste receptors by bile acids” (Communications Biology, 2023):
Several values for one entry are separate records, joined by “and”; a condition that tells them apart may be missing. Identical values can stand only once.

Target: T1, human TAS2R1 (Homo sapiens, UniProt Q9NYW7)
T1 construct: expressed in transfected cells; host or cells: HEK293T-Gα16gust44
T1 sequence (Q9NYW7 1-299): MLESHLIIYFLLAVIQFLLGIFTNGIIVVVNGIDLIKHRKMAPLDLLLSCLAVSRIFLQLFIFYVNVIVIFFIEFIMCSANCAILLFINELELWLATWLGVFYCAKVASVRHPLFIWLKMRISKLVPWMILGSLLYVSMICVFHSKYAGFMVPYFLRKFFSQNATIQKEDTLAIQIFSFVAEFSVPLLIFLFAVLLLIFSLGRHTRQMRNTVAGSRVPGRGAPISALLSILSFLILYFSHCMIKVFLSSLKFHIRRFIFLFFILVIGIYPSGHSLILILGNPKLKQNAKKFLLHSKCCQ
Experiment: Calcium imaging assay (FLIPR), HEK293T-Gα16gust44 cells transfected with human TAS2R1
Type: cell-based
How it was run: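 HEK293T-Gα16gust44 cells transiently transfected with the bitter-taste receptor, loaded next day with Fluo-4-AM plus 2.5 mM probenecid, and challenged with bile acids on FLIPR Tetra. Signals mock-subtracted, expressed as ΔF/F vs buffer.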

C[C@H](CCC(=O)O)[C@H]1CC[C@H]2[C@@H]3[C@H](O)C[C@@H]4C[C@H](O)CC[C@]4(C)[C@H]3C[C@H](O)[C@]12C [Cholic Acid, cholic acid]
Efficacy = maximal amplitude (ΔF/F) (TAS2R1, bile acids, mean): 0.1303
Efficacy (maximal amplitude ΔF/F), individual data points (TAS2R1, bile acids, single replicates, listed as CA): 0.1237 and 0.1261 and 0.1411
RLU (Time 0 s): 0 RLU
RLU (Time 2.015 s): -18.7915 RLU
RLU (Time 4.015 s): -20.7803 RLU
RLU (Time 6.015 s): -30.3104 RLU
RLU (Time 8.015 s): -41.5185 RLU
RLU (Time 12.015 s): -39.0663 RLU
RLU (Time 14.015 s): -19.7859 RLU
RLU (Time 16.015 s): -20.0825 RLU
RLU (Time 18.015 s): -33.1938 RLU
RLU (Time 18.796 s): -13.8993 RLU
RLU (Time 20.796 s): -32.113 RLU
RLU (Time 22.796 s): 0.5227 RLU
RLU (Time 24.796 s): 72.3168 RLU
RLU (Time 26.796 s): 179.01 RLU
RLU (Time 28.796 s): 273.224 RLU
RLU (Time 30.796 s): 414.499 RLU
RLU (Time 32.796 s): 487.46 RLU
RLU (Time 34.796 s): 561.258 RLU
RLU (Time 36.796 s): 600.729 RLU
RLU (Time 38.796 s): 652.414 RLU
RLU (Time 40.796 s): 646.063 RLU
RLU (Time 42.796 s): 688.029 RLU
RLU (Time 44.796 s): 718.237 RLU
RLU (Time 46.796 s): 709.989 RLU
RLU (Time 48.796 s): 747.058 RLU
RLU (Time 50.796 s): 725.497 RLU
RLU (Time 52.796 s): 721.254 RLU
RLU (Time 54.796 s): 750.511 RLU
RLU (Time 56.796 s): 763.129 RLU
RLU (Time 58.796 s): 754.05 RLU
RLU (Time 60.796 s): 736.769 RLU
RLU (Time 62.796 s): 752.117 RLU
RLU (Time 64.796 s): 729.251 RLU
RLU (Time 66.796 s): 754.307 RLU
RLU (Time 68.796 s): 748.849 RLU
RLU (Time 70.796 s): 729.014 RLU
RLU (Time 72.796 s): 724.252 RLU
RLU (Time 74.796 s): 721.996 RLU
RLU (Time 76.796 s): 719.984 RLU
RLU (Time 78.796 s): 701.138 RLU
RLU (Time 80.796 s): 695.956 RLU
RLU (Time 82.796 s): 687.252 RLU
RLU (Time 84.796 s): 702.818 RLU
RLU (Time 86.796 s): 660.013 RLU
RLU (Time 88.796 s): 675.614 RLU
RLU (Time 90.796 s): 671.255 RLU
RLU (Time 92.796 s): 645.369 RLU
RLU (Time 94.796 s): 658.13 RLU
RLU (Time 96.796 s): 614.664 RLU
RLU (Time 98.796 s): 601.791 RLU
RLU (Time 100.796 s): 605.799 RLU
RLU (Time 102.796 s): 574.755 RLU
RLU (Time 104.796 s): 579.697 RLU
RLU (Time 106.796 s): 554.874 RLU
RLU (Time 108.796 s): 536.028 RLU
RLU (Time 110.796 s): 503.66 RLU
RLU (Time 112.796 s): 530.288 RLU
RLU (Time 114.796 s): 510.693 RLU
RLU (Time 116.796 s): 515.676 RLU
RLU (Time 118.796 s): 477.82 RLU
RLU (Time 120.796 s): 483.731 RLU
RLU (Time 122.796 s): 479.051 RLU
RLU (Time 124.796 s): 471.711 RLU
RLU (Time 126.796 s): 440.735 RLU
RLU (Time 128.796 s): 427.776 RLU
RLU (Time 130.796 s): 428.214 RLU
RLU (Time 132.796 s): 399.927 RLU
RLU (Time 134.796 s): 369.335 RLU
RLU (Time 136.796 s): 379.68 RLU
RLU (Time 137.562 s): 368.206 RLU
RLU (Time 143.562 s): 326.335 RLU
RLU (Time 149.562 s): 297.638 RLU
RLU (Time 155.562 s): 268.743 RLU
RLU (Time 161.562 s): 228.213 RLU
RLU (Time 167.562 s): 217.461 RLU
RLU (Time 173.562 s): 182.798 RLU
RLU (Time 179.562 s): 176.247 RLU
RLU (Time 185.562 s): 110.643 RLU
RLU (Time 191.562 s): 119.586 RLU
RLU (Time 197.562 s): 108.976 RLU
RLU (Time 203.562 s): 106.514 RLU
RLU (Time 209.562 s): 78.0739 RLU
RLU (Time 215.562 s): 68.108 RLU
RLU (Time 221.562 s): 58.6538 RLU
RLU (Time 227.562 s): 6.904 RLU
RLU (Time 233.562 s): -20.3665 RLU
RLU (Time 239.562 s): 5.663 RLU
RLU (Time 245.562 s): 6.786 RLU
RLU (Time 293.562 s): -10.9022 RLU
RLU (Time 299.562 s): -34.1549 RLU
RLU (calcium trace, sheet TAS2R1, Time 305.562 s): -13.9937 RLU
RLU (calcium trace, sheet TAS2R1, Time 311.562 s): -29.8879 RLU
RLU (calcium trace, sheet TAS2R1, Time 317.562 s): -12.8001 RLU
RLU (calcium trace, sheet TAS2R1, Time 323.562 s): -27.2317 RLU
RLU (calcium trace, sheet TAS2R1, Time 329.562 s): -32.4678 RLU
RLU (calcium trace, sheet TAS2R1, Time 335.562 s): -20.5128 RLU
RLU (calcium trace, sheet TAS2R1, Time 341.562 s): -18.5874 RLU
RLU (calcium trace, sheet TAS2R1, Time 347.562 s): -51.1709 RLU
RLU (calcium trace, sheet TAS2R1, Time 353.562 s): -49.428 RLU
RLU (calcium trace, sheet TAS2R1, Time 359.562 s): -15.7961 RLU
Activation threshold concentration TAS2R1 (lowest concentration with significantly increased fluorescence vs empty vector (p < 0.01)): 100 µM and 100.00 µM
